Data from patent US11944623B2, “Modulators of Kv3 channels to treat pain” (Autifony Therapeutics Limited, priority 2015, dated 2024).

What was measured:
Human Nav1.7 channels = biological target: T1, Human Nav1.7 channels (Homo sapiens, UniProt Q15858); assay: Nav1.7 QPatch assay; assay type: cell-based; settings: 10 µM concentration (N=3)
T1 construct: expressed in transfected cells
Procedure: Human Nav1.7 channels were stably expressed in a HEK293 cell line. Electrophysiological recordings were made at room temperature using an automated patch clamp platform (QPatch, Sophion Biosciences).
The QPatch assay was carried out at room temperature using the QPatch platform (Sophion). On the day of the experiment cells were cultured according to standard cell preparation for QPatch. Internal and external physiological solutions were freshly prepared prior to the assay. The standard extracellular solution contained 145 mM NaCl, 4 mM KCl, 2 mM CaCl2, 2 mM MgCl2, 10 mM HEPES and 10 mM glucose; the pH was adjusted to 7.4 with NaOH, and the osmolarity measured as 314mOsm/L. The standard intracellular solution contained 140 mM CsF, 10 mM NaCl, 5 mM CsOH, 1 mM EGTA, 10 mM HEPES; the pH was adjusted to 7.25 with CsOH, and the osmolarity measured as 293mOsm/L.
A series of 40 voltage pulses (from −120 mV to 0 mV, 2.4 ms long at 117 Hz) were applied every 60 s in control (twice), compound (five times), standard blocker (twice) and washout (twice). The % inhibition values were calculated by normalising the data relative to the 1st pulse (P1) and by calculating the ratio between the 40th pulse versus the 1st pulse (P40/1). Series resistance and quality of seals were monitored during the experiments. Sophion QPatch Assay Software 5.0 was used to analyse and plot all the graphs. 10 μM of the test compound was applied followed by 1 μM TTX (standard blocker), followed by saline (washout). Compounds were diluted in physiological solutions at the required concentration with a maximum of 0.1% of DMSO.

Human Kv3.4 channels = biological target: T2, Human Kv3.4 channels (Homo sapiens, UniProt Q03721); assay: Kv3.4 Assay 2 (QPatch, HEK293); assay type: cell-based; set-up: dose or concentration left out as unconfirmed; settings: for reduction in peak Kv3.4 current: peak currents did not recover to baseline on washout
T2 construct: expressed in transfected cells
T2 sequence (Q03721 1-635): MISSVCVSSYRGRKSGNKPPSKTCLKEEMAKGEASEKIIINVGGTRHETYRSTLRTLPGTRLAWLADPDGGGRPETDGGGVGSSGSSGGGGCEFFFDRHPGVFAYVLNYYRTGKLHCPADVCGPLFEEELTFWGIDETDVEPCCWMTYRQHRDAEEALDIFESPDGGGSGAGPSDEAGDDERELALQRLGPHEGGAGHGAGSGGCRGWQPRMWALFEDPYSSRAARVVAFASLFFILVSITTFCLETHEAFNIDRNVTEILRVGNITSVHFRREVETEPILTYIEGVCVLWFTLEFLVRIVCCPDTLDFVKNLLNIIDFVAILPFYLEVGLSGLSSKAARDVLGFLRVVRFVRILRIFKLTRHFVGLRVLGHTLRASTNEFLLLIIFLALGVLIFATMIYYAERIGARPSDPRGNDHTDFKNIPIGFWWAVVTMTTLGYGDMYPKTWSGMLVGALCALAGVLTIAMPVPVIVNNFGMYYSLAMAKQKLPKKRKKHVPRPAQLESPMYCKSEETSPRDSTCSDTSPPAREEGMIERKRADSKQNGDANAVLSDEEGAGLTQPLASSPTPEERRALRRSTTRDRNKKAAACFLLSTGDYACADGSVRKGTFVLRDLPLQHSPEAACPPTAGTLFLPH
Procedure: Human Kv3.4 channels were stably expressed in a HEK293 cell line. Cells were used within 1-4 hours of cell preparation and internal and external physiological solutions were freshly prepared prior to the assay. Electrophysiological recordings were made using an automated patch clamp platform (QPatch, Sophion Biosciences). The extracellular solution contained 145 mM NaCl, 4 mM KCl, 2 mM CaCl2, 1 mM MgCl2, 10 mM HEPES and 10 mM glucose; the pH was adjusted to 7.4 with NaOH, and the osmolarity measured as 313 mOsm/L. A low potassium intracellular solution was used which contained 135.6 mM CsCl, 5.37 mM CaCl2, 1.75 mM MgCl2, 10 mM EGTA, 15.6 mM KOH, 4 mM Na2ATP and 10 mM HEPES; the pH was adjusted to 7.2 with CsOH, and the osmolarity measured as 303 mOsm/L.
The voltage dependence of inactivation of the homomeric hKv3.4 channels was tested using a protocol that consisted of a series of two square voltage pulses. The pulse one (P1=pre-pulse) was 1000 ms long and was immediately followed by a second pulse (P2=test pulse) which was 500 ms long. Pulse one varied between the holding potential of −60 mV to +40 mV and pulse two stepped from a holding potential of −60 to +40 mV before returning to the holding potential of −60 mV.
Steady-state voltage-activation and -inactivation curves were fitted with single Boltzmann function in which G/Gmax was obtained from normalized current amplitude and the V50 represent the half-activation or inactivation voltage.
The time constants of the inactivation phase of the hKv3.4 currents were derived from a mono (τ) or a double (τ1 and τ2) standard exponential fit to peak trace pulse from −80 mV to +60 mV.
The time-course of effect of the compounds against the hKv3.4 potassium channel was measured with repetitive voltage pulses from a holding potential of −60 mV, with pulses of 500 ms duration every 5 s to +40 mV.
One concentration (10 uM) of the test compounds was assessed during the activation, inactivation and peak pulse protocols. The protocol was applied with addition of physiological solution (control period), followed by 10 uM of the testing compound and a 10 mM of the standard blocker TEA.
Data were normalized using the baseline current control values as top of the curve (maximum current; 1.0) and the zero potassium current as the bottom of the curve (minimum current; 0.0).
Series resistance and quality of seals were monitored during the experiments. Analysis was performed using the Sophion QPatch Assay Software (version 5.2).
Stock solutions (10 mM) of the standard blockers TEA was prepared in fresh physiological solution prior to testing on the e-phys automated platform. The test compounds were prepared in 10 mM DMSO stock and then diluted 1 in 1000 in physiological solution.

T1 sequence (Q15858 whole entry): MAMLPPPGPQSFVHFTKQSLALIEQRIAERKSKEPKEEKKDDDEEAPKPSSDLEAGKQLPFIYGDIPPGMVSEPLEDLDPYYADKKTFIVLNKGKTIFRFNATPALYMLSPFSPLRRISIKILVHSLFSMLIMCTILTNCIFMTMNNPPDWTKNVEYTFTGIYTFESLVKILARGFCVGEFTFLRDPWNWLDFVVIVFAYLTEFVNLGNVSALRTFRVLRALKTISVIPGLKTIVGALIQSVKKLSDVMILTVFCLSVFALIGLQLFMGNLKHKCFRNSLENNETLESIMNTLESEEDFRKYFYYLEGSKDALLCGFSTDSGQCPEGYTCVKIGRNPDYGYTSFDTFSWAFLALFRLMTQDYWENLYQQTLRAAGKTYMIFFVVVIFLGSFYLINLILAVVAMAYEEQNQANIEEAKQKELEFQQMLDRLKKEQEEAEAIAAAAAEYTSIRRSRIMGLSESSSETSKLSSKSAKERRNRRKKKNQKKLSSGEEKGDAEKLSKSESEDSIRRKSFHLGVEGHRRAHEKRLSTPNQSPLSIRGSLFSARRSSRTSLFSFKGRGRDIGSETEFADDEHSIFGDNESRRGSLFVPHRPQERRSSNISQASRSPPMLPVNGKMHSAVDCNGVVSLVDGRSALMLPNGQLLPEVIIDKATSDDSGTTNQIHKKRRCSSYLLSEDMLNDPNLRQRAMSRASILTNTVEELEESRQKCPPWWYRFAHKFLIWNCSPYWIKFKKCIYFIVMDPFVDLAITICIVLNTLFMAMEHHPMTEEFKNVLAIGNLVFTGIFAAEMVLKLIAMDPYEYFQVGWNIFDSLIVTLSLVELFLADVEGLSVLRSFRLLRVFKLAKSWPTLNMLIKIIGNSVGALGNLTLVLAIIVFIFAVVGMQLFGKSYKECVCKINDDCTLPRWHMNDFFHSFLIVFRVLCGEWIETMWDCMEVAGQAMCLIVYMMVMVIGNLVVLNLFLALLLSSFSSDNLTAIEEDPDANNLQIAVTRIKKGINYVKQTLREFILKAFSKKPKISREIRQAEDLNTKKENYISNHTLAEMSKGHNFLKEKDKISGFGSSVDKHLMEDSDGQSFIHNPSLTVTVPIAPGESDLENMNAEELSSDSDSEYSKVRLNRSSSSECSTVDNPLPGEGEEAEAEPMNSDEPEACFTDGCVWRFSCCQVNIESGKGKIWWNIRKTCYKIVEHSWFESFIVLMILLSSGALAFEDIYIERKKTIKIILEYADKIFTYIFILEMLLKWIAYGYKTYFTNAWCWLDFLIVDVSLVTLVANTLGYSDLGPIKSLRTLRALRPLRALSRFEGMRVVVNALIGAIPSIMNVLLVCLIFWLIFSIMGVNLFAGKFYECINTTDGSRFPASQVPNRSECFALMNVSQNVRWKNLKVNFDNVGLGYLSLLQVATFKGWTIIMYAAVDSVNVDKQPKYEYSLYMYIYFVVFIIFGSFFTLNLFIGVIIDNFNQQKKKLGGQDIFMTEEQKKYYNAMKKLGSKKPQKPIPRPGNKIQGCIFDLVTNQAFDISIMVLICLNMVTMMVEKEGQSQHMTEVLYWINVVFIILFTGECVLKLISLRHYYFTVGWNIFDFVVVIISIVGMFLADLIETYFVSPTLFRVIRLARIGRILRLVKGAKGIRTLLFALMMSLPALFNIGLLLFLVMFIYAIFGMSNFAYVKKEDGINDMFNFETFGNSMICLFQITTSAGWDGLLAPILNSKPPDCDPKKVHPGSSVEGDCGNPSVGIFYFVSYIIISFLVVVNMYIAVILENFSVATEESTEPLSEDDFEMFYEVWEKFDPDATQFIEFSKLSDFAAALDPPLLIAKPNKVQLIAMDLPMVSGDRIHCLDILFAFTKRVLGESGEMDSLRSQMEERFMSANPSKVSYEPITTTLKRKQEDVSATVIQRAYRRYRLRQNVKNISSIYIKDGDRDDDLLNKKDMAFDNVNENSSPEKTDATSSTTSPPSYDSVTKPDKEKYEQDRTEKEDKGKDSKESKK

| effect on Nav1.7-mediated currents (Human Nav1.7 channels) | potentiation of the observed Kv3.4 current (Human Kv3.4 channels) | shift in the voltage-dependence of activation of the Kv3.4 currents (Human Kv3.4 channels) | reduction in peak Kv3.4 current (Human Kv3.4 channels) [%] | SMILES |
| --- | --- | --- | --- | --- |
| No significant effect | did not potentiate | did not produce any notable shift | 40±5 | Cc1ccc(Oc2ncc(N3C(=O)NC(C)(C)C3=O)cn2)c2c1OCC21CC1 [Compound 1, 5,5-dimethyl-3-[2-(7-methylspiro[2H-benzofuran-3,1′-cyclopropane]-4-yl)oxypyrimidin-5-yl]imidazolidine-2,4-dione] |
| No significant effect | did not potentiate | did not produce any notable shift | 45.4±4 | CC[C@@]1(C)NC(=O)N(c2cnc(Oc3ccc(C)c(OC(F)(F)F)c3)nc2)C1=O [Compound 2, (5R)-5-ethyl-5-methyl-3-[2-({4-methyl-3-[(trifluoromethyl)oxy]phenyl}oxy)-5-pyrimidinyl]-2,4-imidazolidinedione] |
| No significant effect | did not potentiate | did not produce any notable shift | 36±3 | Cc1ccc(Oc2ccc(-n3c(C)n[nH]c3=O)cn2)c2c1OCC21CC1 [Compound 3, 5-methyl-4-{6-[(7-methylspiro[1-benzofuran-3,1′-cyclopropan]-4-yl)oxy]pyridin-3-yl}-2,4-dihydro-3H-1,2,4-triazol-3-one] |
| – | did not potentiate | did not produce any notable shift | 50.0±4 | CC[C@H]1NC(=O)N(c2ccc(Oc3ccc(C)c4c3C3(CC3)CO4)nc2)C1=O [Compound 4, (5R)-5-ethyl-3-[6-(7-methylspiro[2H-benzofuran-3,1′-cyclopropane]-4-yl)oxy-3-pyridyl]imidazolidine-2,4-dione] |
